Measurements published in patent publication US20220249447A1, “CF3-, OCF3-, SCF3-, and SF5-Containing Antibacterial Agents” (Purdue Research Foundation, priority 2019, published 2022).
Values after ≈ are worked out from the molar mass of the structure shown.

Legend:
S. aureus = test: MIC, broth microdilution, S. aureus; assay type: cell-based; details: Staphylococcus aureus
Protocol: (§1) Bacteria were cultured in cation-adjusted Mueller Hinton Broth (for strains in Tables 1-3) or Brain Heart Infusion broth (for Enterococcus faecium) or Tryptic Soy Broth (all other bacteria) in a 96-well plate at 37° C. for at least 20 hours. The MIC was classified as the lowest concentration where no visual growth of bacteria was observed. The minimum bactericidal concentration (MBC) was tested by spotting 4 μL from wells with no growth onto Tryptic Soy Agar (TSA) plates. Plates were incubated at 37° C. for at least 18 hours before recording the MBC.

MRSA ATCC 33592 = test: MIC, broth microdilution, MRSA ATCC 33592; assay type: cell-based, methicillin-resistant S. aureus; details: Staphylococcus aureus
Protocol: All MRSA isolates were acquired from BEI Resources. The remaining bacteria were purchased from the American Type Culture Collection (ATCC).
as §1

[1] = test system: Neisseria gonorrhea strain 181; test: MIC against Neisseria gonorrhea strain 181; assay type: cell-based
Protocol: as §1

[2] = test system: C. difficile ATCC BAA 1801; test: MIC against C. difficile ATCC BAA 1801; assay type: cell-based; details: Clostridioides difficile, BAA1801; read-out: MIC C. difficile ATCC BAA 1801
Protocol: as §1

[3] = test system: C. difficile NR-32883 (P2); test: MIC against C. difficile NR-32883 (P2); assay type: cell-based; details: Clostridioides difficile; read-out: MIC C. difficile NR-32883 (P2)
Protocol: as §1

[4] = test system: C. difficile NR-13432 (isolate 6); test: MIC against C. difficile NR-13432 (isolate 6); assay type: cell-based; details: Clostridioides difficile; read-out: MIC C. difficile NR-13432 (isolate 6)
Protocol: as §1

[5] = test system: C. difficile NR-32904 (P30); test: MIC against C. difficile NR-32904 (P30); assay type: cell-based; details: Clostridioides difficile; read-out: MIC C. difficile NR-32904 (P30)
Protocol: as §1

[6] = test system: C. difficile NR-32895 (P19); test: MIC against C. difficile NR-32895 (P19); assay type: cell-based; details: Clostridioides difficile; read-out: MIC C. difficile NR-32895 (P19)
Protocol: as §1

[7] = test system: C. difficile NR-32891 (P13); test: MIC against C. difficile NR-32891 (P13); assay type: cell-based; details: Clostridioides difficile; read-out: MIC C. difficile NR-32891 (P13)
Protocol: as §1

[8] = test system: C. difficile NR-13435 (isolate 9); test: MIC against C. difficile NR-13435 (isolate 9); assay type: cell-based; details: Clostridioides difficile; read-out: MIC C. difficile NR-13435 (isolate 9)
Protocol: as §1

C. difficile ATCC 43255 = test: MIC against C. difficile ATCC 43255; assay type: cell-based; details: Clostridioides difficile, ATCC43255; read-out: MIC C. difficile ATCC 43255
Protocol: as §1

Row | SMILES | MIC (S. aureus) [µg/mL] | MIC (MRSA ATCC 33592) [µg/mL] | further results
1 | O=C(Nc1nnc(-c2ccc(C(F)(F)F)cc2)o1)c1ccc(OC(F)(F)F)cc1 [HSGN-220, 4-(trifluoromethoxy)-N-(5-(4-(trifluoromethyl)phenyl)-1,3,4-oxadiazol-2-yl)benzamide] | 0.125 (≈ 0.3 µM) | 0.25 (≈ 0.599 µM) | 
2 | O=C(Nc1nnc(-c2cccc(Br)c2)o1)c1ccc(SC(F)(F)F)cc1 [HSGN-217, N-(5-(3-bromophenyl)-1,3,4-oxadiazol-2-yl)-4-((trifluoromethyl)thio)benzamide] | 0.5 (≈ 1.13 µM) | 0.5 (≈ 1.13 µM) | MIC [2]: 0.06 µg/mL (≈ 0.135 µM); MIC [1]: 0.25 µg/mL (≈ 0.563 µM); MIC [3]: 0.06 µg/mL (≈ 0.135 µM); MIC [4]: 0.06 µg/mL (≈ 0.135 µM); MIC [5]: 0.125 µg/mL (≈ 0.281 µM); MIC [6]: 0.125 µg/mL (≈ 0.281 µM); MIC [7]: 0.125 µg/mL (≈ 0.281 µM); MIC [8]: 0.06 µg/mL (≈ 0.135 µM); MIC (C. difficile ATCC 43255): 0.06 µg/mL (≈ 0.135 µM)
3 | O=C(Nc1nnc(-c2cccs2)o1)c1ccc(C(F)(F)F)o1 [HSGN-169, N-(5-(thiophen-2-yl)-1,3,4-oxadiazol-2-yl)-5-(trifluoromethyl)furan-2-carboxamide] | > 64 | > 64 | 
4 | O=C(Nc1nnc(-c2cccs2)o1)c1cccc(C(F)(F)F)n1 [HSGN-184, N-(5-(thiophen-2-yl)-1,3,4-oxadiazol-2-yl)-6-(trifluoromethyl)picolinamide] | 16 (≈ 47 µM) | 16 (≈ 47 µM) | 

Now from value to molecule, other results behind:

Row | MIC (S. aureus) [µg/mL] | MIC (MRSA ATCC 33592) [µg/mL] | SMILES | further results
5 | 0.5 (≈ 1.3 µM) | 0.5 (≈ 1.3 µM) | O=C(Nc1nnc(-c2ccccc2F)o1)c1ccc(SC(F)(F)F)cc1 [HSGN-2114, N-(5-(2-fluorophenyl)-1,3,4-oxadiazol-2-yl)-4-((trifluoromethyl)thio)benzamide] | 
6 | > 128 | > 128 | O=C(Nc1cnn(-c2ccccc2)c1)c1ccc(S(F)(F)(F)(F)F)cc1 [HSGN-2135, 4-(pentafluoro-λ^6-sulfaneyl)-N-(1-phenyl-1H-pyrazol-4-yl)benzamide] | 
7 | 0.0625 (≈ 0.135 µM) | 0.0625 (≈ 0.135 µM) | COc1c(Cl)cc(-c2nnc(NC(=O)c3ccc(SC(F)(F)F)cc3)o2)cc1Cl [HSGN-265, N-(5-(3,5-dichloro-4-methoxyphenyl)-1,3,4-oxadiazol-2-yl)-4-((trifluoromethyl)thio)benzamide] | MIC [1]: 2 µg/mL (≈ 4.31 µM)
8 | 1 (≈ 2.74 µM) | 1 (≈ 2.74 µM) | O=C(Nc1nnc(-c2ccccc2)o1)c1ccc(SC(F)(F)F)cc1 [HSGN-280, N-(5-phenyl-1,3,4-oxadiazol-2-yl)-4-((trifluoromethyl)thio)benzamide] | 
9 | 0.25 (≈ 0.579 µM) | 0.25 (≈ 0.579 µM) | O=C(Nc1nnc(-c2ccc(Cl)s2)o1)c1ccc(S(F)(F)(F)(F)F)cc1 [HSGN-2113, N-(5-(5-chlorothiophen-2-yl)-1,3,4-oxadiazol-2-yl)-4-(pentafluoro-λ^6-sulfaneyl)benzamide] | 
10 | 0.0625 (≈ 0.163 µM) | 0.0625 (≈ 0.163 µM) | O=C(Nc1nnc(-c2ccc(F)cc2)o1)c1ccc(SC(F)(F)F)cc1 [HSGN-281, N-(5-(4-fluorophenyl)-1,3,4-oxadiazol-2-yl)-4-((trifluoromethyl)thio)benzamide] | 
11 | 0.0625 (≈ 0.147 µM) | 0.0313 (≈ 0.0735 µM) | O=C(Nc1nnc(-c2cccc(Cl)c2)o1)c1ccc(S(F)(F)(F)(F)F)cc1 [HSGN-259, N-(5-(3-chlorophenyl)-1,3,4-oxadiazol-2-yl)-4-(pentafluoro-k6-sulfaneyl)benzamide] | MIC [2]: < 0.003 µg/mL; MIC [1]: 1 µg/mL (≈ 2.35 µM)
